As a reminder, the Ki is the equilibrium dissociation constant of an inhibitor or competing ligand from its target.

For the experiment, the target named is T1, prostanoide receptor subtype (mouse EP3 α) (Mus musculus, UniProt P30557).
T1 construct: expressed in transfected cells; host or cells: CHO cells (membrane fraction)
T1 sequence (P30557 1-365): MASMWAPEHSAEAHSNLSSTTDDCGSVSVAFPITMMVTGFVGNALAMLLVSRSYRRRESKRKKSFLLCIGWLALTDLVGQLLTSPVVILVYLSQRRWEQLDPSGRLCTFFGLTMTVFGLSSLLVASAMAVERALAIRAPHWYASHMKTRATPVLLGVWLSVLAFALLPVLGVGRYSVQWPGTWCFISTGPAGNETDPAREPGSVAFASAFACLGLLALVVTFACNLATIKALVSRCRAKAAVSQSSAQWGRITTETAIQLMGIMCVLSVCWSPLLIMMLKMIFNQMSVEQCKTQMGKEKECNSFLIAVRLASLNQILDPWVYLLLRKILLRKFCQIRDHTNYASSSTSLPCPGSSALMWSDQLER
The experiment is described as follows: Binding assay using expression cell of prostanoide receptor subtype ([3H]-PGE2 competition). The note with it: membrane fraction of CHO cells expressing mouse EP3 α; 2.5 nM [3H]-PGE2; 1 hour, room temperature; buffer pH6.0; Ki=IC50/(1+([C]/Kd)); read-out: Ki (dissociation constant). The procedure: For example, in standard laboratory test, the effects of the compounds of the present invention were confirmed by inhibitory effect on binding PGE2 using expression cell of mouse receptor.
Binding Assay Using Expression Cell of Prostanoide Receptor Subtype
The preparation of membrane fraction was carried out according to the method of Sugimoto et al [J. Biol. Chem. 267, 6463-6466(1992)], using expression CHO cell of prostanoide receptor subtype (mouse EP3 α).
The standard assay mixture contained membrane fraction (0.5 mg/ml), [^3 H]-PGE2 in a final volume of […] was incubated for 1 hour at room temperature. The reaction was terminated by addition of 3 ml of ice-cold buffer. The mixture was rapidly filtered through a glass filter (GF/B). The radioactivity associated with the filter was measured by liquid scintillation counting.
Kd and Bmax values were determined from Scatchard plots [Ann. N.Y. Acad. Sci., 51, 660(1949)]. Non-specific binding was calculated as the bond in the presence of an excess ([…]) of unlabeled PGE2. In the experiment for competition of specific [^3 H]-PGE2 binding by the compounds of the present invention, [^3 H]-PGE2 was added at a concentration of 2.5 nM and the compounds of the present invention were at a concentration of 1 mM.
The following buffer was used in all reactions.
Buffer: 10 mM potassium phosphate (pH6.0), 1 mM EDTA, 10 mM MgCl2, 0.1 M NaCl
The dissociation constant (Ki) of each compound was calculated by the following equation.
Take `COC(=O)COc1cccc2c(CCC(=O)NC(c3ccccc3)c3ccccc3)cccc12` [Example 1, [5-(2-diphenylmethylaminocarbonylethyl)naphthyl-1-oxy]acetic Acid Methyl Ester]: the inhibition constant (Ki) worked out at 5700 nM.
As to `O=C(O)COc1cccc2c(CCC(=O)NC(c3ccccc3)c3ccccc3)cccc12` [Example 2, [5-(2-diphenylmethylaminocarbonylethyl)naphthyl-1-oxy]acetic Acid], the inhibitory constant (Ki) was 11 nM.
With `O=C(O)COc1cccc2c(CCC(=O)NN(c3ccccc3)c3ccccc3)cccc12` [Example 2a, [5-[2-(3,3-diphenylcarbazoyl)ethyl]naphthyl-1-oxy]acetic Acid], the Ki came out at 110 nM.
Consider `O=C(O)COc1cccc2c(CC(=O)NC(c3ccccc3)c3ccccc3)cccc12` [Example 2d, [5-(diphenylmethylaminocarbonylmethyl)naphthyl-1-oxy]acetic Acid], for which the Ki was determined as 50 nM.
Take `C[C@@H](NC(=O)CCc1cccc2c(OCC(=O)O)cccc12)c1ccccc1` [Example 2k, [5-[2-((1R)-1-phenylethyl)aminocarbonylethyl]naphthyl-1-oxy]acetic Acid]: the Ki came to 830 nM.
For the compound `C[C@H](NC(=O)CCc1cccc2c(OCC(=O)O)cccc12)c1ccccc1` [Example 2l, [5-[2-((1S)-1-phenylethyl)aminocarbonylethyl]naphthyl-1-oxy]acetic Acid], the Ki was determined as 890 nM.
`O=C(CCc1cccc2c(OCCO)cccc12)NC(c1ccccc1)c1ccccc1` [Example 3, 2-[5-(2-diphenylmethylaminocarbonylethyl)naphthyl-1-oxy]ethanol]: the Ki amounted to 26 nM.
The value for `NC(=O)COc1cccc2c(CCC(=O)NC(c3ccccc3)c3ccccc3)cccc12` [Example 4, [5-(2-diphenylmethylaminocarbonylethyl)naphthyl-1-oxy]acetic Acid Amide] was 23 nM; that for `CN(C)C(=O)COc1cccc2c(CCC(=O)NC(c3ccccc3)c3ccccc3)cccc12` [Example 4a, N,N-dimethyl-[5-(2-diphenylmethylaminocarbonylethyl)naphthyl-1-oxy]acetic Acid Amide] was 200 nM.
Consider `O=C(COc1cccc2c(CCC(=O)NC(c3ccccc3)c3ccccc3)cccc12)NCCO` [Example 4b, N-(2-hydroxyethyl)-[5-(2-diphenylmethylaminocarbonylethyl)naphthyl-1-oxy]acetic Acid Amide], for which the inhibition constant Ki turned out to be 1300 nM.
As to `O=C(O)COc1cccc2c(CCNC(=O)C(c3ccccc3)c3ccccc3)cccc12` [Example 8, [5-[2-(diphenylmethylcarbonylamino)ethyl]naphthyl-1-oxy]acetic Acid], the inhibitory constant (Ki) was determined as 68 nM.
